{"source": "patent EP0517412A1", "about": "“Pharmaceutical formulations of a benzodiazepine” (MERCK SHARP & DOHME LTD., priority 1991, dated 1992)", "type_in_all_cases": "physicochemical", "key": {"solubility in water": {"test": "solubility in water"}, "[1]": {"test": "solubility of the benzodiazepine in prior-art type carriers"}, "[2]": {"test": "maximum solubility of the benzodiazepine in carriers of the invention"}}}
{"smiles": "Cc1cccc(NC(=O)NC2N=C(c3ccccc3)c3ccccc3N(C)C2=O)c1", "note": "(stereo not drawn) [(A), 3R(+)-N-(2,3-dihydro-1-methyl-2-oxo-5-phenyl-1H-1,4-benzodiazepin-3-yl)-N'-(3-methylphenyl)-urea]", "values": [{"measurement": "solubility", "setting": "solubility in water", "result": "< 2", "unit": "µg/mL"}, {"measurement": "solubility (carrier a poor solvent)", "setting": "[1]; benzodiazepine substituted for cyclosporin in formulation type of GB 2 228 198 (Maisine and Cremophore RH40)", "result": "less than 10 mg/g"}, {"measurement": "solubility", "setting": "[1]; benzodiazepine substituted for cyclosporin in formulation type of GB 2015339 (Labrafil M1944CS and ethanol with corn oil or olive oil; or glycerol mono-oleate and ethanol)", "result": "~20", "unit": "mg/g"}, {"measurement": "solubility", "setting": "[1]; benzodiazepine substituted for dihydrocyclosporin in formulation type of BE 895 724 (ethanol, Imwitor 742, esterified corn oil)", "result": "~60", "unit": "mg/g"}, {"measurement": "amount that can be dissolved", "setting": "[2]; Method 2 (room temperature method, 20°C, Silverson mixer), Labrafil M2125 CS, Tween 80, propylene glycol, purified water", "result": "up to 6 % (w/w)"}, {"measurement": "maximum solubility for the benzodiazepine", "setting": "[2]; carrier Labrasol/Tween 80", "result": "~240", "unit": "mg/g"}, {"measurement": "maximum solubility for the benzodiazepine", "setting": "[2]; carrier comprising Imwitor 742 and Tween 80", "result": "~140", "unit": "mg/g"}, {"measurement": "maximum solubility for the benzodiazepine", "setting": "[2]; corresponding Labrafil-containing carrier", "result": "60 to 80", "unit": "mg/g"}, {"measurement": "solubility in the mixture of ingredients of the carrier", "setting": "[2]; mixture of carrier ingredients compared with the separate ingredients", "result": "more than in the separate ingredients"}, {"measurement": "percentage of the active ingredient that can be dissolved in the carrier", "setting": "[2]; without heating", "result": "around 6%"}]}
